The values below come from patent US20260070945A1, “MACROCYCLIC IMMUNOMODULATORS” (Bristol-Myers Squibb Company, priority 2022, published 2026).

SMILES strings stand for the structures. Where a SMILES comes first, the peptide text is derived from it. Bridges are numbered along the chain shown (N, C = ends). [ ]: non-standard residue; d: D form. The star is where a group is joined. ξ: configuration not given here. Phe(4-COOH) = N[C@@H](Cc1ccc(C(=O)O)cc1)C(=O)O; Bip = N[C@@H](Cc1ccc(-c2ccccc2)cc1)C(=O)O; Phe(3-Me) = Cc1cccc(C[C@H](N)C(=O)O)c1; NMeR = CN[C@@H](CCCNC(=N)N)C(=O)O; NMeE = CN[C@@H](CCC(=O)O)C(=O)O; Cha = N[C@@H](CC1CCCCC1)C(=O)O; Cit = NC(=O)NCCC[C@H](N)C(=O)O; Ile(3ξ) = CCC(C)[C@H](N)C(=O)O; NMeN = CN[C@@H](CC(N)=O)C(=O)O; Thr(3ξ) = CC(O)[C@H](N)C(=O)O; Carboxymethyl = O=C(O)C*; NMeA = CN[C@@H](C)C(=O)O; Aun = NCCCCCCCCCCC(=O)O; Dab = NCC[C@H](N)C(=O)O; AEEA = NCCOCCOCC(=O)O

The target of this experiment is T1, PD-1/PD-L1 interaction (PE-labeled human PD-L1-Ig binding to Jurkat cell line over-expressing human PD-1) (Homo sapiens, UniProt Q15116).
T1 construct: expressed in transfected cells; host or cells: Jurkat
T1 sequence (Q15116 25-288): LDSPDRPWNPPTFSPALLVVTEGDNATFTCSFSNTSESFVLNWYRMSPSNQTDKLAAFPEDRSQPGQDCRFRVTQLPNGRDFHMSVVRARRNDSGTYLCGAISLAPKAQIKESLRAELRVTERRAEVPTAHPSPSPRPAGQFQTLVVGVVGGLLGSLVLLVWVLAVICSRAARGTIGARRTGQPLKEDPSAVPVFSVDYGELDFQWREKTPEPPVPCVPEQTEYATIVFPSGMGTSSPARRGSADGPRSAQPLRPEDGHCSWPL
In words: Jurkat-PD-1 Cell Binding High-Content Screening Assay (CBA). The note with it: Jurkat-hPD-1 cells, PE-labeled PD-L1-Ig 20 nM final; read-out: Jurkat HPD1 PDL1 IC50. A digest of the protocol:
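High-content imaging read-out of PE-PD-L1-Ig binding (20 nM final, 1 h) to Jurkat-hPD-1 cells, after 2 h compound exposure at 37 °C in DMEM with 10% FCS. Nuclei counterstained with Hoechst 33342 after paraformaldehyde fixation.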
As to `CC(C)C[C@H]1NC(=O)[C@H](C)N(C)C(=O)[C@H](C(C)C)NC(=O)[C@H](Cc2ccc(-c3ccccc3)cc2)NC(=O)[C@H](C(C)C)NC(=O)[C@H](Cc2c[nH]c3ccccc23)NC(=O)[C@H](CC(=O)O)NC(=O)[C@H](Cc2ccc(C(=O)O)cc2)NC(=O)[C@H](Cc2ccc(OCC(=O)O)cc2)NC(=O)CSC[C@@H](C(=O)N[C@@H](CCN)C(=O)NCCCCCCCCCCC(=O)O)NC(=O)[C@H](CCCNC(N)=O)NC(=O)[C@H](C(C)C)NC(=O)[C@H](CC2CCCCC2)NC(=O)[C@H](CCN)NC1=O` [Example 2290] ({CH2CO}-Y(Carboxymethyl)[Phe(4-COOH)]DWV[Bip]V[NMeA][dL][Dab][Cha]V[Cit]C[Dab][Aun]-OH; thioether N-14), the IC50 was found to be 0.018 µM. With `CC(C)C[C@@H]1NC(=O)[C@H](Cc2c[nH]c3ccccc23)NC(=O)[C@H](CC(=O)O)NC(=O)[C@H](Cc2ccc(OCC(=O)O)cc2)NC(=O)[C@H](C(C)O)NC(=O)CSC[C@@H](C(=O)NCCOCCOCC(=O)NCCCCCCCCCCC(=O)O)NC(=O)[C@H](CCC(=O)O)NC(=O)[C@H](C(C)C)NC(=O)[C@H](CC2CCCCC2)NC(=O)[C@H](CCN)NC(=O)[C@@H](CC(C)C)NC(=O)[C@H](C)N(C)C(=O)[C@H](C(C)C)NC(=O)[C@H](Cc2ccc(-c3ccccc3)cc2)NC1=O` (stereo partly drawn) [Example 2291] ({CH2CO}-[Thr(3ξ)]Y(Carboxymethyl)DWL[Bip]V[NMeA][dL][Dab][Cha]VEC[AEEA][Aun]-OH; thioether N-14), the IC50 turned out to be 0.0289 µM.

Turning to `Cc1cccc(C[C@@H]2NC(=O)[C@H](CC(=O)O)NC(=O)[C@H](Cc3ccc(C(=O)O)cc3)NC(=O)[C@H](Cc3ccc(OCC(=O)O)cc3)NC(=O)CSC[C@@H](C(=O)N[C@@H](CCN)C(=O)NCCCCCCCCCCC(=O)O)NC(=O)[C@H](CCC(=O)O)NC(=O)[C@H](C(C)C)NC(=O)[C@H](CC3CCCCC3)NC(=O)[C@H](CCN)NC(=O)[C@@H](CC(C)C)NC(=O)[C@H](C)N(C)C(=O)[C@H](C(C)C)NC(=O)[C@H](Cc3ccc(-c4ccccc4)cc3)NC(=O)[C@H](CC(C)C)NC2=O)c1` [Example 2293] ({CH2CO}-Y(Carboxymethyl)[Phe(4-COOH)]D[Phe(3-Me)]L[Bip]V[NMeA][dL][Dab][Cha]VEC[Dab][Aun]-OH; thioether N-14), the IC50 worked out at 0.0202 µM. For `Cc1cccc(C[C@@H]2NC(=O)[C@H](CC(=O)O)NC(=O)[C@H](Cc3ccc(C(=O)O)cc3)NC(=O)[C@H](Cc3ccc(OCC(=O)O)cc3)NC(=O)CSC[C@@H](C(=O)N[C@@H](CCN)C(=O)NCCCCCCCCCCC(=O)O)NC(=O)[C@H](CCCNC(N)=O)NC(=O)[C@H](C(C)C)NC(=O)[C@H](CC3CCCCC3)NC(=O)[C@H](CCN)NC(=O)[C@@H](CC(C)C)NC(=O)[C@H](C)N(C)C(=O)[C@H](C(C)C)NC(=O)[C@H](Cc3ccc(-c4ccccc4)cc3)NC(=O)[C@H](CC(C)C)NC2=O)c1` [Example 2294] ({CH2CO}-Y(Carboxymethyl)[Phe(4-COOH)]D[Phe(3-Me)]L[Bip]V[NMeA][dL][Dab][Cha]V[Cit]C[Dab][Aun]-OH; thioether N-14), the IC50 is 0.0199 µM. `CC(=O)NCCCC[C@@H]1NC(=O)[C@H](Cc2ccc(-c3ccccc3)cc2)NC(=O)[C@H](C(C)C)NC(=O)[C@H](Cc2cccc(C)c2)NC(=O)[C@H](CC(=O)O)NC(=O)[C@H](Cc2ccc(C(=O)O)cc2)NC(=O)[C@H](Cc2ccc(OCC(=O)O)cc2)NC(=O)CSC[C@@H](C(=O)NCCOCCOCC(=O)NCCCCCCCCCCC(=O)O)NC(=O)[C@H](CCCNC(N)=O)NC(=O)[C@H](C(C)C)NC(=O)[C@H](CC2CCCCC2)NC(=O)[C@H](CCN)NC(=O)[C@@H](CC(C)C)NC(=O)[C@H](C)N(C)C1=O` [Example 2295] ({CH2CO}-Y(Carboxymethyl)[Phe(4-COOH)]D[Phe(3-Me)]V[Bip]K(Ac)[NMeA][dL][Dab][Cha]V[Cit]C[AEEA][Aun]-OH; thioether N-14): the IC50 stood at 0.0103 µM. With `Cc1cccc(C[C@@H]2NC(=O)[C@H](CC(=O)O)NC(=O)[C@H](Cc3ccc(C(=O)O)cc3)NC(=O)[C@H](Cc3ccc(OCC(=O)O)cc3)NC(=O)CSC[C@@H](C(=O)NCCOCCOCC(=O)NCCCCCCCCCCC(=O)O)NC(=O)[C@H](CCC(=O)O)NC(=O)[C@H](C(C)C)NC(=O)[C@H](CC3CCCCC3)NC(=O)[C@H](CCN)NC(=O)[C@@H](CC(C)C)NC(=O)[C@H](C)N(C)C(=O)[C@H](C(C)C)NC(=O)[C@H](Cc3ccc(-c4ccccc4)cc3)NC(=O)[C@H](CC(C)C)NC2=O)c1` [Example 2296] ({CH2CO}-Y(Carboxymethyl)[Phe(4-COOH)]D[Phe(3-Me)]L[Bip]V[NMeA][dL][Dab][Cha]VEC[AEEA][Aun]-OH; thioether N-14), the IC50 was 0.0346 µM. For `CCC(C)[C@@H]1NC(=O)[C@H](Cc2ccc(-c3ccccc3)cc2)NC(=O)[C@H](C(C)C)NC(=O)[C@H](Cc2c[nH]c3ccccc23)NC(=O)[C@H](CC(=O)O)NC(=O)[C@H](Cc2ccc(OCC(=O)O)cc2)NC(=O)[C@H](Cc2ccc(OCC(=O)O)cc2)NC(=O)CSC[C@@H](C(=O)N[C@H](CC(N)=O)C(=O)NCCCCCCCCCCC(=O)O)NC(=O)[C@H](CCCNC(N)=O)NC(=O)[C@H](C(C)C)NC(=O)[C@H](CC2CCCCC2)NC(=O)[C@H](CCN)NC(=O)[C@@H](CC(C)C)NC(=O)[C@H](C)N(C)C1=O` (stereo partly drawn) [Example 2297] ({CH2CO}-Y(Carboxymethyl)Y(Carboxymethyl)DWV[Bip][Ile(3ξ)][NMeA][dL][Dab][Cha]V[Cit]C[dN][Aun]-OH; thioether N-14), the IC50 was determined as 0.0085 µM. On to `CCC(C)[C@@H]1NC(=O)[C@H](Cc2ccc(-c3ccccc3)cc2)NC(=O)[C@H](C(C)C)NC(=O)[C@H](Cc2cccc(C)c2)NC(=O)[C@H](CC(=O)O)NC(=O)[C@H](Cc2ccc(OCC(=O)O)cc2)NC(=O)[C@H](CCCNC(=N)N)NC(=O)CSC[C@@H](C(=O)N[C@H](CC(N)=O)C(=O)NCCCCCCCCCCC(=O)O)NC(=O)[C@H](C(C)O)NC(=O)[C@H](C(C)C)NC(=O)[C@H](CC2CCCCC2)NC(=O)[C@H](CCN)NC(=O)[C@@H](CC(C)C)NC(=O)[C@H](C)N(C)C1=O` (stereo partly drawn) [Example 2298] ({CH2CO}-RY(Carboxymethyl)D[Phe(3-Me)]V[Bip][Ile(3ξ)][NMeA][dL][Dab][Cha]V[Thr(3ξ)]C[dN][Aun]-OH; thioether N-14), for which the IC50 came out at 0.0247 µM.

As for `Cc1cccc(C[C@@H]2NC(=O)[C@H](CC(=O)O)NC(=O)[C@H](Cc3ccc(OCC(=O)O)cc3)NC(=O)[C@H](C(C)O)NC(=O)CSC[C@@H](C(=O)N(C)[C@@H](CCC(=O)O)C(=O)NCCCCCCCCCCC(=O)O)NC(=O)[C@H](CO)NC(=O)[C@H](C(C)C)NC(=O)[C@H](CC3CCCCC3)NC(=O)[C@H](CCN)NC(=O)[C@@H](CC(C)C)NC(=O)[C@H](C)N(C)C(=O)[C@H](C(C)C)NC(=O)[C@H](Cc3ccc(-c4ccccc4)cc3)NC(=O)[C@H](C(C)C)NC2=O)c1` (stereo partly drawn) [Example 2299] ({CH2CO}-[Thr(3ξ)]Y(Carboxymethyl)D[Phe(3-Me)]V[Bip]V[NMeA][dL][Dab][Cha]VSC[NMeE][Aun]-OH; thioether N-14), the IC50 was 0.13 µM.

For `CC(=O)NCCCC[C@@H]1NC(=O)[C@H](CC2CCCCC2)NC(=O)[C@H](CCN)NC(=O)[C@@H](CC(C)C)NC(=O)[C@H](C)N(C)C(=O)[C@H](C(C)C)NC(=O)[C@H](Cc2ccc(-c3ccccc3)cc2)NC(=O)[C@H](C(C)C)NC(=O)[C@H](Cc2cccc(C)c2)NC(=O)[C@H](CC(=O)O)NC(=O)[C@H](Cc2ccc(OCC(=O)O)cc2)NC(=O)[C@H](C(C)O)NC(=O)CSC[C@@H](C(=O)N[C@@H](CCN)C(=O)NCCCCCCCCCCC(=O)O)NC(=O)[C@H](CO)NC1=O` (stereo partly drawn) [Example 2300] ({CH2CO}-[Thr(3ξ)]Y(Carboxymethyl)D[Phe(3-Me)]V[Bip]V[NMeA][dL][Dab][Cha]K(Ac)SC[Dab][Aun]-OH; thioether N-14), the half-maximal inhibitory concentration (IC50) was 0.0156 µM.

For `Cc1cccc(C[C@@H]2NC(=O)[C@H](CC(=O)O)NC(=O)[C@H](Cc3ccc(OCC(=O)O)cc3)NC(=O)[C@H](C(C)O)NC(=O)CSC[C@@H](C(=O)N(C)[C@@H](CCCNC(=N)N)C(=O)NCCCCCCCCCCC(=O)O)NC(=O)[C@H](CO)NC(=O)[C@H](C(C)C)NC(=O)[C@H](CC3CCCCC3)NC(=O)[C@H](CCN)NC(=O)[C@@H](CC(C)C)NC(=O)[C@H](C)N(C)C(=O)[C@H](C(C)C)NC(=O)[C@H](Cc3ccc(-c4ccccc4)cc3)NC(=O)[C@H](C(C)C)NC2=O)c1` (stereo partly drawn) [Example 2301] ({CH2CO}-[Thr(3ξ)]Y(Carboxymethyl)D[Phe(3-Me)]V[Bip]V[NMeA][dL][Dab][Cha]VSC[NMeR][Aun]-OH; thioether N-14), the IC50 was found to be 0.151 µM. To `Cc1cccc(C[C@@H]2NC(=O)[C@H](CC(=O)O)NC(=O)[C@H](Cc3ccc(OCC(=O)O)cc3)NC(=O)[C@H](C(C)O)NC(=O)CSC[C@@H](C(=O)N(C)[C@@H](CC(N)=O)C(=O)NCCCCCCCCCCC(=O)O)NC(=O)[C@H](CO)NC(=O)[C@H](C(C)C)NC(=O)[C@H](CC3CCCCC3)NC(=O)[C@H](CCN)NC(=O)[C@@H](CC(C)C)NC(=O)[C@H](C)N(C)C(=O)[C@H](C(C)C)NC(=O)[C@H](Cc3ccc(-c4ccccc4)cc3)NC(=O)[C@H](C(C)C)NC2=O)c1` (stereo partly drawn) [Example 2302] ({CH2CO}-[Thr(3ξ)]Y(Carboxymethyl)D[Phe(3-Me)]V[Bip]V[NMeA][dL][Dab][Cha]VSC[NMeN][Aun]-OH; thioether N-14) belongs 0.0282 µM; to `Cc1cccc(C[C@@H]2NC(=O)[C@H](CC(=O)O)NC(=O)[C@H](Cc3ccc(OCC(=O)O)cc3)NC(=O)[C@H](C(C)O)NC(=O)CSC[C@@H](C(=O)N[C@@H](CCN)C(=O)NCCCCCCCCCCC(=O)O)NC(=O)[C@H](C(C)O)NC(=O)[C@H](C(C)C)NC(=O)[C@H](CC3CCCCC3)NC(=O)[C@H](CCN)NC(=O)[C@@H](CC(C)C)NC(=O)[C@H](C)N(C)C(=O)[C@H](CCC(=O)O)NC(=O)[C@H](Cc3ccc(-c4ccccc4)cc3)NC(=O)[C@H](CCC(=O)O)NC2=O)c1` (stereo partly drawn) [Example 2303] ({CH2CO}-[Thr(3ξ)]Y(Carboxymethyl)D[Phe(3-Me)]E[Bip]E[NMeA][dL][Dab][Cha]V[Thr(3ξ)]C[Dab][Aun]-OH; thioether N-14), 0.046 µM.

In general, IC50 refers to the concentration at which inhibition is half-maximal.
